US8877778B2, “Benzofurane compounds” (Hoffmann-La Roche Inc., priority 2010, dated 2014)

How the values were obtained:
human D2 receptor = human D2 receptor (Homo sapiens (Human), UniProt P14416); test: Radioligand binding ([3H]-spiperone) to cloned receptors expressed in HEK-293 EBNA cells; conditions: HEK293 EBNA cell membranes expressing human D2
Description: (§1) HEK293 EBNA cells were transiently transfected with expression plasmids encoding for the human D2 or D3 or for the human 5-HT2A receptor, respectively. The cells were harvested 48 h post-transfection, washed three times with cold PBS and stored at −80° C. prior to use. The pellet was suspended in cold 50 mM Tris-HCl buffer comprising 10 mM EDTA (pH 7.4) and was homogenized with a Polytron (Kinematica AG, Basel, Switzerland) for 20-30 sec at 12.000 rpm. After centrifugation at 48.000×g for 30 min at 4° C., the pellet was resuspended in cold 10 mM Tris-HCl buffer comprising 0.1 mM EDTA (pH 7.4), homogenized, and centrifuged as above. This pellet was further resuspended in a smaller volume of ice cold 10 mM Tris-HCl buffer comprising 0.1 mM EDTA (pH 7.4) and homogenized with a Polytron for 20-30 sec at 12.000 rpm. The protein content of this homogenate was determined with the Bio-Rad (Bradford) Protein Assay (Biorad Laboratories GmbH, München, Germany) according to the instructions of the manufacturer using gamma globulin as the standard. This homogenate was stored at −80° C. in aliquots and thawed immediately prior to use.
(§2) Aliquots of membrane preparations were thawed at RT, resupended in assay buffer (D2, D3: 50 mM Tris-HCl, 120 mM NaCl, 5 mM MgCl2, 1 mM EDTA, 5 mM KCl, 1.5 mM CaCl2, pH=7.4; 5-HT2A: 50 mM Tris-HCl, 10 mM MgCl2, 1 mM EGTA, pH=7.4), homogenized with a Polytron for 20-30 sec at 12.000 rpm and adjusted to a final concentration of approximately 7.5 μg protein/well (D2, D3) and 15 μg protein/well (5-HT2A), respectively.
(§3) The binding affinity (Ki) of the compounds was determined using radioligand binding. Membranes were incubated in a total volume of 200 μl with a fixed concentration of radioligand (final concentration approximately 0.7 nM [^3H]-spiperone for D2, 0.5 nM [^3H]-spiperone for D3, and 1.1 nM [^3H]-ketanserin for 5-HT2A) and ten concentrations of test compound in ranging between 10 μM-0.1 nM for 1 h at RT. At the end of the incubation, the reaction mixtures were filtered on to unifilter 96-well white microplates with bonded GF/C filters (Packard BioScience, Zürich, Switzerland; preincubated for 1 h in 0.1% polyethylenimine (PEI) in assay buffer) with a Filtermate 196 harvester (Packard BioScience) and washed 3 times with cold assay buffer. The nonspecific binding was determined with equally composed reaction mixtures in the presence of 10 μM unlabelled spiperone. Per well 45 μl of Microscint 40 (Perkin Elmer, Schwerzenbach, Switzerland) was added, plates for sealed, shaken for 20 min and counted for 3 min on a Topcount Microplate Scintillation Counter (Can berra Packard SA, Zürich, Switzerland) with quenching correction.
(§4) The CPM value for each duplicate of a concentration of competing compound was averaged (y1), then the % specific binding was calculated according to the equation (((y1−non-specific)/(total binding−non-specific))×100). Graphs were plotted with the % specific binding using XLfit, a curve fitting program that iteratively plots the data using Levenberg-Marquardt algorithm. The single site competition analysis equation used was y=A+((B−A)/(1+((x/C)D))), where y is the % specific binding, A is the minimum y, B is the maximum y, C is the IC50, x is the log 10 of the concentration of the competing compound and D is the slope of the curve (the Hill Coefficient). […] The affinity constant (Ki) was calculated using the Cheng-Prusoff equation Ki=(IC50/1+([L]/Kd), where [L] is the concentration of radioligand and Kd is the dissociation constant of the radioligand at the receptor as determined by the saturation isotherm.

human D3 receptor = human D3 receptor (Homo sapiens (Human), UniProt P35462); test: as above; conditions: HEK293 EBNA cell membranes expressing human D3
Description: as §1, §2, §3, §4

human 5-HT2A receptor = human 5-HT2A receptor (Homo sapiens (Human), UniProt P28223); test: Radioligand binding ([3H]-ketanserin) to cloned receptors expressed in HEK-293 EBNA cells; conditions: HEK293 EBNA cell membranes expressing human 5-HT2A
Description: as §1, §2, §3, §4

human D2 receptor, sequence (P14416 whole entry): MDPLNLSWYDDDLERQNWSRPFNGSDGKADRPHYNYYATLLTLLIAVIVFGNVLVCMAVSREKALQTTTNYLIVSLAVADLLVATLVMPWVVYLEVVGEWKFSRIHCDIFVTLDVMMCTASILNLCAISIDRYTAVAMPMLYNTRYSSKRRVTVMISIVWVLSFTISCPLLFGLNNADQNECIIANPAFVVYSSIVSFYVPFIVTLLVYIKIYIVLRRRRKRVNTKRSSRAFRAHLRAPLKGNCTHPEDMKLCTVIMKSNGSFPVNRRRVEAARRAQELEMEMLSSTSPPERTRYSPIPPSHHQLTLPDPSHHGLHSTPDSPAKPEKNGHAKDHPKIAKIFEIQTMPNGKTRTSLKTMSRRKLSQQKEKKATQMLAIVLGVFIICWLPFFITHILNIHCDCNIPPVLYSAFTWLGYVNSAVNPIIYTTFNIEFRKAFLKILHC
human 5-HT2A receptor, sequence (P28223 whole entry): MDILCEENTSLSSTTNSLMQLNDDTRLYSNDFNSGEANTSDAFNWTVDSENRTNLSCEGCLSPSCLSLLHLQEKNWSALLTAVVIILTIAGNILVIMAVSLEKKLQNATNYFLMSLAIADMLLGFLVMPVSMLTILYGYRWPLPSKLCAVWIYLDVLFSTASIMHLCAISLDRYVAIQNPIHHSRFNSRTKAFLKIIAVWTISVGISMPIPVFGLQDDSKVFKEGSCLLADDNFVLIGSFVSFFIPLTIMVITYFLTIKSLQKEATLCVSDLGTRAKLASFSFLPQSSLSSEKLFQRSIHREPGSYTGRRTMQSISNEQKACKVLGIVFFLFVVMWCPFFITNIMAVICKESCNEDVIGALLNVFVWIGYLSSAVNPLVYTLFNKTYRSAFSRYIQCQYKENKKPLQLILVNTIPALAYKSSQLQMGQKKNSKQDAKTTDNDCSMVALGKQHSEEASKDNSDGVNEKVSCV
human D3 receptor, sequence (P35462 whole entry): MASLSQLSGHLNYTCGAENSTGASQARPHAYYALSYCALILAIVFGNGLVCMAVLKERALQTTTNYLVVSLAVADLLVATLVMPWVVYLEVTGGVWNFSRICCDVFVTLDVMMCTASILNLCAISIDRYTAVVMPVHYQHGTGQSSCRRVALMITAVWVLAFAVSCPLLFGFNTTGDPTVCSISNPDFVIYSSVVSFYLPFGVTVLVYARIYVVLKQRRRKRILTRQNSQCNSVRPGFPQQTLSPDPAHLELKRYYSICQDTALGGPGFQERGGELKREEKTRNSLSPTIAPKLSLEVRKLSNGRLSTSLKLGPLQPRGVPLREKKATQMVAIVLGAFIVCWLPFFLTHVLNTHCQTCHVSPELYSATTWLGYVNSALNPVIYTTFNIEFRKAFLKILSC

SMILES	Ki (human D2 receptor) [nM]	Ki (human D3 receptor) [nM]	melting point [°C]	Ki (human 5-HT2A receptor) [nM]
O=C(CC1COCCO1)N[C@H]1CC[C@H](CCN2CCC(c3cccc4occc34)CC2)CC1 (mixture of isomers) [Example 12, trans-N-{4-[2-(4-Benzofuran-4-yl-piperidin-1-yl)-ethyl]-cyclohexyl}-rac-2-[1,4]dioxan-2-yl-acetamide]	219	5.4	165	–
O=C(CC1COCCO1)N[C@H]1CC[C@H](CCN2CCC(c3cccc4c3CCO4)CC2)CC1 (mixture of isomers) [Example 16, trans-N-(4-{2-[4-(2,3-Dihydro-benzofuran-4-yl)-piperidin-1-yl]-ethyl}-cyclohexyl)-rac-2-[1,4]dioxan-2-yl-acetamide]	–	–	192	22.3
O=C(CC1CCCO1)N[C@H]1CC[C@H](CCN2CCC(c3cccc4c3CCO4)CC2)CC1 (mixture of isomers) [Example 25, trans-N-(4-{2-[4-(2,3-Dihydro-benzofuran-4-yl)-piperidin-1-yl]-ethyl}-cyclohexyl)-rac-2-(tetrahydro-furan-2-yl)-acetamide]	–	–	192	–
O=C(N[C@H]1CC[C@H](CCN2CCC(c3cccc4c3CCO4)CC2)CC1)C(O)C(F)(F)F (mixture of isomers) [Example 37, trans-(RS)—N-(4-{2-[4-(2,3-Dihydro-benzofuran-4-yl)-piperidin-1-yl]-ethyl}-cyclohexyl)-3,3,3-trifluoro-2-hydroxy-propionamide]	241	9.2	179	–
O=C(N[C@H]1CC[C@H](CCN2CCC(c3cccc4c3CCO4)CC2)CC1)C1CCOC1 (mixture of isomers) [Example 52, (RS)-Tetrahydro-furan-3-carboxylic acid trans-(4-{2-[4-(2,3-dihydro-benzofuran-4-yl)-piperidin-1-yl]-ethyl}-cyclohexyl)-amide]	135	5.5	211	24.6
O=C(N[C@H]1CC[C@H](CCN2CCC(c3cccc4c3CCO4)CC2)CC1)C1CCCO1 (mixture of isomers) [Example 53, (RS)-Tetrahydro-furan-2-carboxylic acid trans-(4-{2-[4-(2,3-dihydro-benzofuran-4-yl)-piperidin-1-yl]-ethyl}-cyclohexyl)-amide]	–	41.5	160	13.1
O=C(N[C@H]1CC[C@H](CCN2CCC(c3cccc4c3CCO4)CC2)CC1)C1CCCOC1 (mixture of isomers) [Example 54, (RS)-Tetrahydro-pyran-3-carboxylic acid trans-(4-{2-[4-(2,3-dihydro-benzofuran-4-yl)-piperidin-1-yl]-ethyl}-cyclohexyl)-amide]	633	–	222	21.3
CCC(C)C(=O)N[C@H]1CC[C@H](CCN2CCC(c3cccc4c3CCO4)CC2)CC1 (mixture of isomers) [Example 62, trans-N-(4-{2-[4-(2,3-Dihydro-benzofuran-4-yl)-piperidin-1-yl]-ethyl}-cyclohexyl)-(RS)-2-methyl-butyramide]	1200	–	210	64.4
CC(=O)N[C@H]1CC[C@H](CCN2CCC(c3cccc4occc34)CC2)CC1 [Example 1, trans-N-{4-[2-(4-Benzofuran-4-yl-piperidin-1-yl)-ethyl]-cyclohexyl}-acetamide]	187	2.9	167	6.8
COCCC(=O)N[C@H]1CC[C@H](CCN2CCC(c3cccc4occc34)CC2)CC1 [Example 2, trans-N-{4-[2-(4-Benzofuran-4-yl-piperidin-1-yl)-ethyl]-cyclohexyl}-3-methoxy-propionamide]	288	3.1	154	7.1
O=C(N[C@H]1CC[C@H](CCN2CCC(c3cccc4occc34)CC2)CC1)C1CCOCC1 [Example 3, Tetrahydro-pyran-4-carboxylic acid trans-{4-[2-(4-benzofuran-4-yl-piperidin-1-yl)-ethyl]-cyclohexyl}-amide]	305	11.9	217	2.2
O=C(CC1CCOCC1)N[C@H]1CC[C@H](CCN2CCC(c3cccc4occc34)CC2)CC1 [Example 4, trans-N-{4-[2-(4-Benzofuran-4-yl-piperidin-1-yl)-ethyl]-cyclohexyl}-2-(tetrahydro-pyran-4-yl)-acetamide]	219	5.7	181	9
CC(=O)N[C@H]1CC[C@H](CCN2CCC(c3cccc4c3CCO4)CC2)CC1 [Example 5, trans-N-(4-{2-[4-(2,3-Dihydro-benzofuran-4-yl)-piperidin-1-yl]-ethyl}-cyclohexyl)-acetamide]	298	6	183	37.2
COCCC(=O)N[C@H]1CC[C@H](CCN2CCC(c3cccc4c3CCO4)CC2)CC1 [Example 6, trans-N-(4-{2-[4-(2,3-Dihydro-benzofuran-4-yl)-piperidin-1-yl]-ethyl}-cyclohexyl)-3-methoxy-propionamide]	509	6.6	182	38.7
O=C(N[C@H]1CC[C@H](CCN2CCC(c3cccc4c3CCO4)CC2)CC1)C1CCOCC1 [Example 7, Tetrahydro-pyran-4-carboxylic acid trans-(4-{2-[4-(2,3-dihydro-benzofuran-4-yl)-piperidin-1-yl]-ethyl}-cyclohexyl)-amide]	716	22.8	227	12.8
O=C(C[C@@H]1COCCO1)N[C@H]1CC[C@H](CCN2CCC(c3cccc4c3CCO4)CC2)CC1 [Example 21, trans-N-(4-{2-[4-(2,3-Dihydro-benzofuran-4-yl)-piperidin-1-yl]-ethyl}-cyclohexyl)-(R)-2-[1,4]dioxan-2-yl-acetamide]	–	–	190	27.9
O=C(C[C@H]1COCCO1)N[C@H]1CC[C@H](CCN2CCC(c3cccc4c3CCO4)CC2)CC1 [Example 22, trans-N-(4-{2-[4-(2,3-Dihydro-benzofuran-4-yl)-piperidin-1-yl]-ethyl}-cyclohexyl)-(8)-2-[1,4]dioxan-2-yl-acetamide]	–	–	190	19.4
O=C(C[C@H]1CCCO1)N[C@H]1CC[C@H](CCN2CCC(c3cccc4c3CCO4)CC2)CC1 [Example 31, trans-N-(4-{2-[4-(2,3-Dihydro-benzofuran-4-yl)-piperidin-1-yl]-ethyl}-cyclohexyl)-(R)-2-(tetrahydro-furan-2-yl)-acetamide]	–	–	192	–
O=C(C[C@@H]1CCCO1)N[C@H]1CC[C@H](CCN2CCC(c3cccc4c3CCO4)CC2)CC1 [Example 32, trans-N-(4-{2-[4-(2,3-Dihydro-benzofuran-4-yl)-piperidin-1-yl]-ethyl}-cyclohexyl)-(S)-2-(tetrahydro-furan-2-yl)-acetamide]	–	–	192	–
O=C(N[C@H]1CC[C@H](CCN2CCC(c3cccc4c3CCO4)CC2)CC1)C1(O)CCC1 [Example 39, 1-Hydroxy-cyclobutanecarboxylic acid trans-(4-{2-[4-(2,3-dihydro-benzofuran-4-yl)-piperidin-1-yl]-ethyl}-cyclohexyl)-amide]	306	27.3	–	12.3
